Source: patent publication US7750154B2, “Amide derivatives” (AstraZeneca AB, priority 2003, dated 2010)

Assays:
[1] = target: T1, p38α (Homo sapiens, UniProt Q16539); assay: In vitro enzyme assay, p38α kinase; format: biochemical
T1 construct: c-myc (N); 6His (N); made in house; host or cells: E. coli (PET vectors)

[2] = system: TNFα production in human whole blood; assay: Human whole blood assay, LPS-stimulated TNFα production; format: cell-based; conditions: inhibition of TNFα production
Description: The ability of a test compound to inhibit TNFα production was also assessed in a human whole blood assay. Human whole blood secretes TNFα when stimulated with LPS. […] Plates were incubated for 30 minutes at 37° C. (humidified incubator), prior to addition of 20 μl LPS (final concentration 10 μg/ml). Culture medium was added to control wells. Six “LPS alone” and six “medium alone” controls were included on each plate. A known TNFα synthesis/secretion inhibitor was included in each test. Plates were incubated for 6 hours at 37° C. (humidified incubator). Plates were centrifuged (2000 rpm for 10 minutes) and 80 μl plasma removed and stored at −80° C. (Corning 3799 plates). TNFα levels were measured by ELISA using paired antibodies from R&D Systems (catalogue nos. MAB610 and BAF210).

T1 sequence (Q16539 whole entry): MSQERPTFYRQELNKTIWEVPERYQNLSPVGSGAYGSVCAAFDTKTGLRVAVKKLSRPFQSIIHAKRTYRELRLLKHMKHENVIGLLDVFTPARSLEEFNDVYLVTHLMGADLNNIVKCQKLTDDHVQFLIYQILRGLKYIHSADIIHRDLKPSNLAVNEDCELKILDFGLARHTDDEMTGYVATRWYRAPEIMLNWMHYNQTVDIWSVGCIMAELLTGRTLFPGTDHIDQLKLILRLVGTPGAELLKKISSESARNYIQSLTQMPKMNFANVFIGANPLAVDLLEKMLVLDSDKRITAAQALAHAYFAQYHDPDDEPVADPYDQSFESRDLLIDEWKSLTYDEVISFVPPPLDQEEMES

| Structure (SMILES) | IC50 [1] | IC50 [2] |
| --- | --- | --- |
| Cc1ccc(C(=O)NC2(C)CC2)cc1-n1cnc2ccc(N3CCN(C)CC3)cc2c1=O [6 (a), 4-methyl-N-(1-methylcyclopropyl)-3-[6-(4-methylpiperazin-1-yl)-4-oxoquinazolin-3(4H)-yl]benzamide] | 81 nM | 351 nM |
| Cc1ccc(NC(=O)c2ccnc(Cl)c2)cc1-n1cnc2ccc(N3CCN(C)CC3)cc2c1=O [Comparator Compound A, 3-[5-(2-chloropyrid-4-ylcarbonylamino)-2-methylphenyl]-6-(4-methylpiperazin-1-yl)-3,4-dihydroquinazolin-4-one, reference compound] | 277 nM | 3710 nM |
| Cc1ccc(NC(=O)c2cc(F)cc(F)c2)cc1-n1cnc2ccc(N3CCN(C)CC3)cc2c1=O [Comparator Compound B, 3-[5-(3,5-difluorobenzamido)-2-methylphenyl]-6-(4-methylpiperazin-1-yl)-3,4-dihydroquinazolin-4-one, reference compound] | 41 nM | 3850 nM |
| CCCN1CCCN(c2ccc3ncn(-c4cc(C(=O)NC5CC5)ccc4C)c(=O)c3c2)CC1 [Example 7, N-cyclopropyl-4-methyl-3-[4-oxo-6-(4-propyl-1,4-diazepan-1-yl)quinazolin-3(4H)-yl]benzamide] | 8 nM | 34 nM |
| Cc1ccc(C(=O)NC2CC2)cc1-n1cnc2ccc(OCCN(C)C)cc2c1=O [Example 24, N-Cyclopropyl-3-[6-[2-(dimethylamino)ethoxy]-4-oxoquinazolin-3(4H)-yl]-4-methylbenzamide] | 19 nM | 17 nM |
